Ends that are not written are not given here.
Columns and labels:
P. aeruginosa (CFS 1292) = assay: microbe, parasite or virus in culture; assay type: cell-based, Pseudomonas aeruginosa
[1] = Stability assessment in 100% CAA; assay type: in vitro ADME; design: unit not given beside the values
Procedure: Stability was assessed after incubation in 100% human serum at 37° C. after 10 minutes, 1 hour, and 2 hours.
Stability assessment was further conducted in 100% CAA and rabbit serum using the same methodology discussed above.

S. maltophilia = assay: MIC against S. maltophilia isolates; assay type: cell-based, Stenotrophomonas maltophilia; conditions: S. maltophilia isolates (n per peptide in table)
Procedure: (§1) Determination of Minimal Inhibitory Concentrations (MIC).
In addition to the results discussed above in Example 3, further testing was conducted on several Chp peptides. MIC values were determined against different species, including P. aeruginosa, K. pneumoniae, A. baumannii, E. cloacae, E. coli, and S. maltophilia, and the results are presented below in Tables 40-45, wherein n=number of isolates tested for each species and MIC is measured as μg/mL.

Enterobacter cloacae = assay: microbe, parasite or virus in culture; assay type: cell-based; conditions: for MIC: Enterobacter cloacae ATCC 13047, CAA supplemented with human serum
Procedure: as §1
(§2) Additional MIC testing was performed for several peptides against the ESKAPE pathogens Escherichia coli, Enterobacter cloacae, Klebsiella pneumoniae, and Acinetobacter baumannii, in CAA supplemented with human serum (Table D).

Escherichia coli = assay: microbe, parasite or virus in culture; assay type: cell-based; conditions: for MIC: Escherichia coli ATCC 25922, CAA supplemented with human serum
Procedure: as §1, §2

M. smegmatis = assay: 45 hr MIC against M. smegmatis (NTM), Mueller Hinton broth; assay type: cell-based, Mycobacterium smegmatis
[2] = test system: carbapenem-resistant bacterial strains; assay: organism not typed; assay type: cell-based
Description: as §1

Klebsiella pneumoniae = assay type: cell-based; conditions: for MIC50 / MIC100 / MIC Range: K. pneumoniae isolates (n per peptide in table); for MIC: Klebsiella pneumoniae HM-44, CAA supplemented with human serum
Procedure: as §1, §2

[3] = test system: carbapenem-resistant P. aeruginosa clinical isolate CFS-1292; assay: MIC by modified CLSI broth microdilution against P. aeruginosa CFS-1292 (CAA, CAA + human serum); assay type: cell-based, Pseudomonas aeruginosa; conditions: for MIC (μg/mL) against CFS-1292 in 100% CAA (1st run/2nd run): 1st run or single value
Pseudomonas aeruginosa = assay: microbe, parasite or virus in culture; assay type: cell-based; conditions: P. aeruginosa isolates (n per peptide in table)
Acinetobacter baumannii = assay: microbe, parasite or virus in culture; assay type: cell-based; conditions: for MIC50 / MIC100 / MIC Range: A. baumannii isolates (n per peptide in table); for MIC: Acinetobacter baumannii ATCC BAA 747, CAA supplemented with human serum
M. avium = assay: 45 hr MIC against M. avium (NTM); assay type: cell-based, Mycobacterium avium; conditions: M. avium Chester ATCC 700898
M. intracellulare = assay: 45 hr MIC against M. intracellulare (NTM); assay type: cell-based, Mycobacterium intracellulare; conditions: M. intracellulare (Cuttino and McCabe) Runyon ATCC 13950
[4] = test system: M. kansasii Hauduroy ATCC 12478; assay: 45 hr MIC against M. kansasii (NTM), Mueller Hinton broth; assay type: cell-based, Mycobacterium kansasii
[5] = test system: Mycobacterium tuberculosis strains; conditions: Mycobacterium tuberculosis (Zopf) Lehmann and Neumann ATCC 35817
Procedure: MIC values for various Chp peptides were determined using the CLSI method for broth microdilution in 96-well microtiter format.
Next, MIC values for various Chp peptides were determined using the CLSI method above for broth microdilution in 96-well microtiter format for two different Mycobacterium tuberculosis strains. The MIC was determined as explained above for the NTM strains.

M. fortuitum = assay: 45 hr MIC against M. fortuitum (NTM); assay type: cell-based, Mycobacterium fortuitum; conditions: M. fortuitum subsp. Fortuitum da Costa Cruz. ATCC 6841
M. scrofulaceum = assay: 45 hr MIC against M. scrofulaceum (NTM); assay type: cell-based, Mycobacterium scrofulaceum; conditions: M. scrofulaceum Prissick and Masson ATCC 19981
[6] = E. cloacae isolates (n per peptide in table)
[7] = E. coli isolates (n per peptide in table)
[8] = carbapenem-resistant isolate PA19
[9] = carbapenem-resistant isolate PA20
[10] = carbapenem-resistant isolate PA21
[11] = carbapenem-resistant isolate PA22
[12] = carbapenem-resistant isolate PA23
[13] = carbapenem-resistant isolate PA24
[14] = carbapenem-resistant isolate WLC-452

Row | Compound | MIC (100% CAA) [1] | MIC50 (S. maltophilia) [µg/mL] | MIC100 (S. maltophilia) [µg/mL] | MIC (Enterobacter cloacae) [µg/mL] | MIC (Escherichia coli) [µg/mL] | 45 hr MIC (M. smegmatis; M. smegmatis MC^2 155, Run #1) [µg/mL] | MIC [2, 8] [µg/mL] | MIC [2, 9] [µg/mL] | MIC [2, 10] [µg/mL] | MIC [2, 11] [µg/mL] | MIC [2, 12] [µg/mL] | MIC [2, 13] [µg/mL] | MIC [2, 14] [µg/mL] | MIC50 (Klebsiella pneumoniae) [µg/mL] | MIC100 (Klebsiella pneumoniae) [µg/mL] | MIC (Klebsiella pneumoniae) [µg/mL] | MIC (μg/mL) against CFS-1292 in 100% CAA (1st run/2nd run) [3] [µg/mL] | MIC50 (Pseudomonas aeruginosa) [µg/mL] | MIC100 (Pseudomonas aeruginosa) [µg/mL] | MIC50 (Acinetobacter baumannii) [µg/mL] | also measured
1 | NC[C@H]1O[C@H](O[C@H]2[C@H](O)[C@@H](O[C@H]3O[C@H](CO)[C@@H](O)[C@H](N)[C@H]3O)[C@H](N)C[C@@H]2N)[C@H](N)C[C@@H]1O [Tobra] |  |  |  |  |  |  |  |  |  |  |  |  |  |  |  |  |  |  |  |  | Passage MIC Passage #1 (Untreated) (P. aeruginosa (CFS 1292); Passage #1, MIC of agent on untreated culture): 0.125 µg/mL; Passage MIC Passage #1 (P. aeruginosa (CFS 1292); Passage #1, colonies from spot dilution, duplicates (1),(2)): 0.5 µg/mL; Passage MIC Passage #2 (Untreated) (P. aeruginosa (CFS 1292); Passage #2, MIC of agent on untreated culture): 0.125 µg/mL; Passage MIC Passage #2 (P. aeruginosa (CFS 1292); Passage #2, colonies from spot dilution, duplicates (1),(2)): 0.5 µg/mL; Passage MIC Passage #3 (Untreated) (P. aeruginosa (CFS 1292); Passage #3, MIC of agent on untreated culture): 0.125 µg/mL; Passage MIC Passage #3 (P. aeruginosa (CFS 1292); Passage #3, colonies from spot dilution, duplicates (1),(2)): 0.5 µg/mL; Passage MIC Passage #4 (Untreated) (P. aeruginosa (CFS 1292); Passage #4, MIC of agent on untreated culture): 0.125 µg/mL; Passage MIC Passage #4 (P. aeruginosa (CFS 1292); Passage #4, colonies from spot dilution, duplicates (1),(2)): 0.5 µg/mL; Passage MIC Passage #5 (Untreated) (P. aeruginosa (CFS 1292); Passage #5, MIC of agent on untreated culture): 0.125 µg/mL; Passage MIC Passage #5 (P. aeruginosa (CFS 1292); Passage #5, colonies from spot dilution, duplicates (1),(2)): 1 µg/mL
2 | MARRKKMKGKRDKRVFKQTANKTKAINISPKNMRGGTRL [Unp3] | 4 | >8 | >8 | 8 | 0.5 | 32 | 8 | >8 | >8 | >8 | >8 | >8 | >8 | >8 | >8 | 4 | 8 | >8 | >8 | >8 | MIC Range (S. maltophilia): >8 µg/mL; MIC50 (Enterobacter cloacae; [6]): >8 µg/mL; MIC100 (Enterobacter cloacae; [6]): >8 µg/mL; MIC Range (Enterobacter cloacae; [6]): >8 µg/mL; MIC50 (Escherichia coli; [7]): >8 µg/mL; MIC100 (Escherichia coli; [7]): >8 µg/mL; MIC Range (Klebsiella pneumoniae): >8 µg/mL; MIC100 (Acinetobacter baumannii): >8 µg/mL; MIC (Acinetobacter baumannii): 2 µg/mL
3 | MKLTKSDIAYREALGLSTTDPLPAEIGMVTRRANRLKRPRKTARFR [Myo1] |  |  |  |  |  | >64 |  |  |  |  |  |  |  |  |  |  | >64 |  |  |  | 45 hr MIC (M. avium): 8 µg/mL; 45 hr MIC (M. intracellulare): >64 µg/mL; 45 hr MIC (M. smegmatis; M. smegmatis MC^2 155, Run #2): >64 µg/mL; 45 hr MIC [4]: >64 µg/mL; MIC [5]: 32 µg/mL; 45 hr MIC (M. fortuitum): >64 µg/mL
4 | MKPLKRKPVQKARSAAKFRRNVSTVKAANMAVKPMRGGWRF [Fen7875] | 4 |  |  |  |  | 4 |  |  |  |  |  |  |  |  |  |  | 2 |  |  |  | 45 hr MIC (M. avium): 2 µg/mL; 45 hr MIC (M. intracellulare): 8 µg/mL; 45 hr MIC (M. smegmatis; M. smegmatis MC^2 155, Run #2): 16 µg/mL; 45 hr MIC (M. scrofulaceum): 16 µg/mL; MIC (μg/mL) against CFS-1292 in CAA + […] human serum [3]: 2 µg/mL; 45 hr MIC [4]: 32 µg/mL; 45 hr MIC (M. fortuitum): 8 µg/mL
5 | MLTVWSDTPTIKRRKDMYRKRMSRKKSKKVFAKTAMKVNKRNHVKPMRGGYRI [Gkh3] | 0.5 | 8 | >8 | 4 | 2 | >128 | 2 | >8 | >8 | >8 | 8 | 8 | 2 | >8 | >8 | 4 | 0.5 | 8 | >8 | 0.5 | MIC50 (Enterobacter cloacae; [6]): 4 µg/mL; MIC100 (Enterobacter cloacae; [6]): 4 µg/mL; MIC50 (Escherichia coli; [7]): 1 µg/mL; MIC100 (Escherichia coli; [7]): 4 µg/mL; MIC Range (Escherichia coli; [7]): 0.5 to 8 µg/mL; MIC (μg/mL) against CFS-1292 in CAA + […] human serum [3]: 1 µg/mL; MIC100 (Acinetobacter baumannii): 1 µg/mL; MIC Range (Acinetobacter baumannii): 0.25 to 1 µg/mL; MIC (Acinetobacter baumannii): 4 µg/mL
6 | MMKYRKKMSAKSSRKQFTKGAMKVKGKNFTKPMRGGIRL [Unp5] | 2 | >8 | >8 | 4 | 1 | 8 | 8 | >8 | >8 | >8 | >8 | >8 | >8 | >8 | >8 | 4 | 2 | >8 | >8 | 4 | MIC Range (S. maltophilia): >8 µg/mL; MIC Range (Klebsiella pneumoniae): >8 µg/mL; MIC (μg/mL) against CFS-1292 in CAA + […] human serum [3]: 0.5 µg/mL; MIC100 (Acinetobacter baumannii): 8 µg/mL; MIC Range (Acinetobacter baumannii): 1 to 8 µg/mL; MIC (Acinetobacter baumannii): 8 µg/mL
7 | MRKRMSKRVDKKVFRRTAASAKKINIDPKIYRGGIRL [Osp1] | 4 | >8 | >8 | 32 | 0.5 | 32 | >8 | >8 | >8 | >8 | >8 | >8 | 8 | >8 | >8 | 0.125 | 16 | >8 | >8 | 8 | MIC Range (S. maltophilia): >8 µg/mL; MIC Range (Klebsiella pneumoniae): >8 µg/mL; MIC Range (Pseudomonas aeruginosa): >8 µg/mL; MIC100 (Acinetobacter baumannii): 8 µg/mL; MIC Range (Acinetobacter baumannii): 2 to 8 µg/mL; MIC (Acinetobacter baumannii): 32 µg/mL
